The numbers were not newly measured in PubChem BioAssay AID1259409 (Chemical Carcinogenesis Research Information System (CCRIS), 2018), which cites them from elsewhere.

The test system of this series is rodent chemically induced tumor inhibition, incidence and multiplicity. Put plainly: CCRIS tumor inhibitor studies.

On to `C/C=C(/C)C(=O)OC1c2c(ccc3ccc(=O)oc23)OC(C)(C)C1OC(=O)/C(C)=C\C` (stereo not given), for which the “tumour outcome (control, treated, inhibition, significance)” value (Carcinogen: 7,12-DIMETHYLBENZ[A]ANTHRACENE, 57-97-6, Dose [Inhibitor]: 10 UMOL APPLIED 40 MINUTES PRIOR TO PROMOTER DOSE (STUDY DURATION: 20 WK), Route [Inhibitor]: DERMAL, Species: MOUSE, Strain/Sex: ICR/FEMALE, Target Tissue: Type of Lesion: SKIN: PAPILLOMA, Dose [Carcinogen]: 100 UG ONCE) is on record as 100%, 0%, 100%, not calculated.
`COc1cc(C)c(/C=C/C(C)=C/C=C/C(C)=C/C(=O)O)c(C)c1C`: the “tumour outcome (control, treated, inhibition, significance)” value by setting is: (Carcinogen: N-METHYL-N-NITROSOUREA, 684-93-5, Dose [Inhibitor]: 75 MG/KG DIET DAILY FOR 55 WK STARTING 1 WK AFTER LAST CARCINOGEN EXPOSURE (STUDY DURATION: 65 WK), Route [Inhibitor]: ORAL, Species: HAMSTER, Strain/Sex: SYRIAN/MALE, Target Tissue: Type of Lesion: TRACHEA: TUMOR, Dose [Carcinogen]: 1% FOR 7 SECONDS 2/WK FOR 9 WK, Promoter: NONE USED) 30/37 (81%), 27/37 (73%), 10%, not significant; (Carcinogen: N-METHYL-N-NITROSOUREA, 684-93-5, Dose [Inhibitor]: 150 MG/KG DIET DAILY FOR 55 WK STARTING 1 WK AFTER LAST CARCINOGEN EXPOSURE (STUDY DURATION: 65 WK), Route [Inhibitor]: ORAL, Species: HAMSTER, Strain/Sex: SYRIAN/MALE, Target Tissue: Type of Lesion: TRACHEA: TUMOR, Dose [Carcinogen]: 1% FOR 7 SECONDS 2/WK FOR 9 WK, Promoter: NONE USED) 30/37 (81%), 24/38 (63%), 22%, not significant; (Carcinogen: N-METHYL-N-NITROSOUREA, 684-93-5, Dose [Inhibitor]: 150 MG/KG DIET DAILY FOR 55 WK STARTING 1 WK AFTER LAST CARCINOGEN EXPOSURE (STUDY DURATION: 66 WK), Route [Inhibitor]: ORAL, Species: HAMSTER, Strain/Sex: SYRIAN/MALE, Target Tissue: Type of Lesion: TRACHEA: TUMOR, Dose [Carcinogen]: 1% FOR 7 SECONDS 2/WK FOR 10 WK, Promoter: NONE USED) 32/38 (84%), 34/39 (87%), -4%, not significant; (Carcinogen: N-METHYL-N-NITROSOUREA, 684-93-5, Dose [Inhibitor]: 150 MG/KG DIET DAILY FOR 55 WK STARTING 1 WK AFTER LAST CARCINOGEN EXPOSURE (STUDY DURATION: 67.5 WK), Route [Inhibitor]: ORAL, Species: HAMSTER, Strain/Sex: SYRIAN/MALE, Target Tissue: Type of Lesion: TRACHEA: TUMOR, Dose [Carcinogen]: 1% FOR 7 SECONDS 2/WK FOR 11.5 WK, Promoter: NONE USED) 24/40 (60%), 24/40 (60%), 0%, not significant.
